Laboratory results reported in patent US20160375033A1, “METHODS OF TREATMENT WITH TASELISIB” (Genentech, Inc., priority 2015, published 2016).

Molecular target: T1, p110a protein (Homo sapiens, UniProt P42336, H1047R)
T1 construct: endogenous in cells; host or cells: HCC1954 (PIK3CA H1047R plus a wild-type allele)
Assay: Western blot analysis of p110a protein degradation
Assay type: cell-based
Experimental: Cell Culture: Cell lines were grown under standard tissue culture conditions in RPMI media with 10% fetal bovine serum, 100 U/mL penicillin, and 100 μg/mL streptomycin. […] Protein concentrations were determined using the Pierce BCA Protein Assay Kit (Thermo Fisher Scientific; Rockford, Ill.).
Protein Assays: Protein concentration was determined using the Pierce BCA Protein Assay Kit (Rockford, Ill.). […] Antibodies to p110alpha, and phospho-Akt (Ser473), were obtained from Cell Signaling (Danvers, Mass.). Antibodies to beta-actin and GAPDH were from Sigma.
Beta Actin antibody was obtained from Sigma-Aldrich (St. Louis, Mo.). Specific antigen-antibody interaction was detected with a horseradish peroxidase-conjugated secondary antibody IgG using enhanced chemiluminescence Western blotting detection reagents (GE Healthcare Life Sciences, Pittsburgh, Pa.).
Monoclonal and polyclonal PI3K p110 alpha antibodies are commercially available (Santa Cruz Biotechnology).

T1 sequence (P42336 whole entry H1047R): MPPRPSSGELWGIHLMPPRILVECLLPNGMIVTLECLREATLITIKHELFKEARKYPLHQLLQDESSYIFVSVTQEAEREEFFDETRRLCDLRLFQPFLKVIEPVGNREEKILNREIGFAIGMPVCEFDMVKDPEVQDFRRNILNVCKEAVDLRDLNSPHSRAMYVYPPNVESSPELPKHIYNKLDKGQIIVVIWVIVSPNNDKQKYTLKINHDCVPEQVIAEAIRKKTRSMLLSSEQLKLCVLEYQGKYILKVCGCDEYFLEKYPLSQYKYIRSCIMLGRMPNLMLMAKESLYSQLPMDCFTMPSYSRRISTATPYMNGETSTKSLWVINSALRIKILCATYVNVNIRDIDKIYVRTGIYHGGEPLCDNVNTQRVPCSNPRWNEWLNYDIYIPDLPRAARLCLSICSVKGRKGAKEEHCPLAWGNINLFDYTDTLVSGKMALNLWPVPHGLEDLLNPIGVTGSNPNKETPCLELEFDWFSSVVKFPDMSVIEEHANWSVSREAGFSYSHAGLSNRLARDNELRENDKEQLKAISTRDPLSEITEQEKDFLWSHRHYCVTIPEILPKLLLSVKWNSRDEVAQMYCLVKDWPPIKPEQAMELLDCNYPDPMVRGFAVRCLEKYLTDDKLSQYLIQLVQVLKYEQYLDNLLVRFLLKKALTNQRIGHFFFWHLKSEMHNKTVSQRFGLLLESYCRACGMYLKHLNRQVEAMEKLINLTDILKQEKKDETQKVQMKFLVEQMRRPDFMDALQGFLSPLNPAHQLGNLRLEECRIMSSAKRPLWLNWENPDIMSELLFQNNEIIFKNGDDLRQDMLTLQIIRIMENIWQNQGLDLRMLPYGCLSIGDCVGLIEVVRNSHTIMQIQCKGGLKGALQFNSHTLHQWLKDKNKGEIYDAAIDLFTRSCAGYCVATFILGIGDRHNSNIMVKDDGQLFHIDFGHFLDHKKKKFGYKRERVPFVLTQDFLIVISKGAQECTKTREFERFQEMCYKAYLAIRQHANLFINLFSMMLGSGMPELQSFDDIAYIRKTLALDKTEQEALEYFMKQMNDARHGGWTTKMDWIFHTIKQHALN

Compound: Cc1nc(-c2cn3c(n2)-c2ccc(-c4cnn(C(C)(C)C(N)=O)c4)cc2OCC3)n(C(C)C)n1 [GDC-0032, 2-(4-(2-(1-isopropyl-3-methyl-1H-1,2,4-triazol-5-yl)-5,6-dihydrobenzo[f]imidazo[1,2-d][1,4]oxazepin-9-yl)-1H-pyrazol-1-yl)-2-methylpropanamide]
- time dependence of p110 alpha depletion (HCC1954 (PIK3CA H1047R), 1 μM and 5 μM): depleted in a time dependent manner
- time after washout at which p110a level begins to return (HCC1954 (PIK3CA H1047R), 16, 80, 400 nM): 8 to 24 h
- degradation of membrane-associated versus cytosolic p110a (HCC1954 (PIK3CA H1047R), membrane, cytosol, total lysate): rapidly mediates degradation of mutant p110a at the plasma membrane
- degradation of mutant p110a protein (HCC1954 cells (PIK3CA H1047R), 24 hrs): uniquely degrades mutant-p110a protein
- p110a depletion and p85 level (PIK3CA wildtype HDQP1 and mutant HCC1954 cells): p110a depletion in PIK3CA mutant cell lines without effecting p85 level
- p110a degradation, mutant versus wild type (SW48 parental, E545K het, H1047R het, 0.2, 1, 5 μM): Mutant p110a is more susceptible than wild type to degradation
- p110a degradation, p85 co-immunoprecipitation (cells treated for 24 h): significant dose dependent p110a degradation
